Measured values as given in PubChem BioAssay (NCI).
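Method: 48-hour compound exposure of cells in 96-well plates, five concentrations, linear interpolation of endpoints. GI50: concentration for 50% inhibition of growth. TGI: total growth inhibition.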

Key:
Assay in all cases: NCI tumour cell line growth inhibition, 48 h
[1] = tested on: SK-MEL-28 melanoma
[2] = tested on: NCI-H226 lung
[3] = tested on: ACHN renal
[4] = tested on: RPMI-8226 leukemia
[5] = tested on: UACC-62 melanoma
[6] = tested on: A549 NSCLC
[7] = tested on: SF-268 CNS
[8] = tested on: SK-OV-3 ovarian
[9] = tested on: UACC-257 melanoma
[10] = tested on: BT-549 breast
[11] = tested on: NCI-H522 lung
[12] = tested on: NCI/ADR-RES ovarian
[13] = tested on: SR leukemia
[14] = tested on: IGROV1 ovarian
[15] = tested on: OVCAR-3 ovarian
[16] = tested on: MALME-3M melanoma
[17] = tested on: CAKI-1 renal
[18] = tested on: NCI-H460 lung
[19] = tested on: MDA-MB-435
[20] = tested on: SNB-19 CNS
[21] = tested on: SW-620 colon
[22] = tested on: CCRF-CEM leukemia
[23] = tested on: HT29 colon
[24] = tested on: 786-0 renal
[25] = tested on: LOX IMVI melanoma
[26] = tested on: MDA-MB-231 breast
[27] = tested on: PC-3 prostate
[28] = tested on: HCC-2998 colon
[29] = tested on: OVCAR-8 ovarian
[30] = tested on: SF-539 CNS
[31] = tested on: MOLT-4 leukemia
[32] = tested on: KM12 colon
[33] = tested on: NCI-H23 lung
[34] = tested on: OVCAR-5 ovarian
[35] = tested on: OVCAR-4 ovarian
[36] = tested on: HL-60(TB) leukemia
[37] = tested on: SK-MEL-2 melanoma
[38] = tested on: DU-145 prostate
[39] = tested on: HS 578T breast
[40] = tested on: M14 melanoma
[41] = tested on: EKVX NSCLC
[42] = tested on: HCT-15 colon
[43] = tested on: COLO 205 colon
[44] = tested on: UO-31 renal
[45] = tested on: A498 renal
[46] = tested on: T-47D breast
[47] = tested on: SNB-75 CNS
[48] = tested on: MCF7 breast
[49] = tested on: HOP-62 NSCLC
[50] = tested on: U251 CNS
[51] = tested on: SN12C renal
[52] = tested on: K-562 leukemia
[53] = tested on: SF-295 CNS
[54] = tested on: TK-10 renal
[55] = tested on: SK-MEL-5 melanoma
[56] = tested on: HCT-116 colon

CCCCN1C=CCN(CCCC)C1
GI50 [1]: 86.9 µM | TGI [1]: > 100 µM | GI50 [2]: > 100 µM | TGI [2]: > 100 µM | GI50 [3]: 89.7 µM | TGI [3]: > 100 µM | GI50 [4]: 23.6 µM | TGI [4]: 93.6 µM | GI50 [5]: 48.1 µM | TGI [5]: > 100 µM | GI50 [6]: > 100 µM | TGI [6]: > 100 µM | GI50 [7]: 53 µM | TGI [7]: > 100 µM | GI50 [8]: > 100 µM | TGI [8]: > 100 µM | GI50 [9]: 22.8 µM | TGI [9]: 80.7 µM | GI50 [10]: > 100 µM | TGI [10]: > 100 µM | GI50 [11]: 52.5 µM | TGI [11]: > 100 µM | GI50 [12]: > 100 µM | TGI [12]: > 100 µM | GI50 [13]: > 100 µM | TGI [13]: > 100 µM | GI50 [14]: 66.4 µM | TGI [14]: > 100 µM | GI50 [15]: 23.8 µM | TGI [15]: 57.2 µM | GI50 [16]: 21.2 µM | TGI [16]: 57.3 µM | GI50 [17]: > 100 µM | TGI [17]: > 100 µM | GI50 [18]: 47.5 µM | TGI [18]: > 100 µM | GI50 [19]: 33.8 µM | TGI [19]: > 100 µM | GI50 [20]: 46.4 µM | TGI [20]: > 100 µM | GI50 [21]: 70.1 µM | TGI [21]: > 100 µM | GI50 [22]: > 100 µM | TGI [22]: > 100 µM | GI50 [23]: 61.4 µM | TGI [23]: > 100 µM | GI50 [24]: > 100 µM | TGI [24]: > 100 µM | GI50 [25]: 68.5 µM | TGI [25]: > 100 µM | GI50 [26]: > 100 µM | TGI [26]: > 100 µM | GI50 [27]: 37.7 µM | TGI [27]: > 100 µM | GI50 [28]: 34 µM | TGI [28]: > 100 µM | GI50 [29]: 61.7 µM | TGI [29]: > 100 µM | GI50 [30]: > 100 µM | TGI [30]: > 100 µM | GI50 [31]: 60.7 µM | TGI [31]: > 100 µM | GI50 [32]: 35.8 µM | TGI [32]: > 100 µM | GI50 [33]: 63.8 µM | TGI [33]: > 100 µM | GI50 [34]: > 100 µM | TGI [34]: > 100 µM | GI50 [35]: 58.8 µM | TGI [35]: > 100 µM | GI50 [36]: 21.2 µM | TGI [36]: 75.4 µM | GI50 [37]: 46.3 µM | TGI [37]: > 100 µM | GI50 [38]: > 100 µM | TGI [38]: > 100 µM | GI50 [39]: 63.4 µM | TGI [39]: > 100 µM | GI50 [40]: 85.1 µM | TGI [40]: > 100 µM | GI50 [41]: 18.5 µM | TGI [41]: > 100 µM | GI50 [42]: > 100 µM | TGI [42]: > 100 µM | GI50 [43]: 28.9 µM | TGI [43]: > 100 µM | GI50 [44]: > 100 µM | TGI [44]: > 100 µM | GI50 [45]: > 100 µM | TGI [45]: > 100 µM | GI50 [46]: 27.3 µM | TGI [46]: > 100 µM | GI50 [47]: > 100 µM | TGI [47]: > 100 µM | GI50 [48]: 57 µM | TGI [48]: > 100 µM | GI50 [49]: > 100 µM | TGI [49]: > 100 µM | GI50 [50]: 32.2 µM | TGI [50]: > 100 µM | GI50 [51]: 71.7 µM | TGI [51]: > 100 µM | GI50 [52]: 32 µM | TGI [52]: > 100 µM | GI50 [53]: 49.8 µM | TGI [53]: > 100 µM | GI50 [54]: > 100 µM | TGI [54]: > 100 µM | GI50 [55]: 30.1 µM | TGI [55]: > 100 µM | GI50 [56]: 39 µM | TGI [56]: > 100 µM
